Columns and labels:
Experiment in all cases: Protein kinase inhibition assay
Type in all cases: biochemical
DAPK1(h) = DAPK1(h) (Homo sapiens, UniProt P53355); conditions: read-out: percent residual activity of DAPK1(h)
Procedure: (§1) Certain compounds were tested for activity in protein kinase inhibition assays. All substrates were dissolved and diluted to working stocks in de-ionized water, apart from histone H1 (10× working stock in 20 mM MOPS pH 7.0), PDKtide (10× working stock in 50 mM Tris pH 7.0) ATF2 (which is typically stored at a 20× working stock in 50 mM Tris pH 7.5, 150 mM NaCl, 0.1 mM EGTA, 0.03% Brij-35, 50% glycerol, 1 mM benzamidine, 0.2 mM PMSF and 0.1% R-mercaptoethanol), KKLNRTLSFAEPG (SEQ ID NO:203) and RRRLSFAEPG (SEQ ID NO:204) (50 mM HEPES pH 7.4) and GGEEEEYFELVKKKK (SEQ ID NO:205) (20 mM MOPS pH 7.0). All kinases were pre-diluted to a 10× working concentration prior to addition into the assay. The composition of the dilution buffer for each kinase is detailed below.

EGFR(T790M)(h) = EGFR(T790M)(h) (Homo sapiens, UniProt P00533, T790M); conditions: read-out: percent residual activity of EGFR(T790M)(h)
Procedure: as §1

ARK5(h) = ARK5(h) (Homo sapiens, UniProt O60285); conditions: read-out: percent residual activity of ARK5(h)
Procedure: as §1

Pim-2(h) = Pim-2(h) (Homo sapiens, UniProt Q9P1W9); conditions: read-out: percent residual activity of Pim-2(h)
Sequence of Pim-2(h) (Q9P1W9 whole entry): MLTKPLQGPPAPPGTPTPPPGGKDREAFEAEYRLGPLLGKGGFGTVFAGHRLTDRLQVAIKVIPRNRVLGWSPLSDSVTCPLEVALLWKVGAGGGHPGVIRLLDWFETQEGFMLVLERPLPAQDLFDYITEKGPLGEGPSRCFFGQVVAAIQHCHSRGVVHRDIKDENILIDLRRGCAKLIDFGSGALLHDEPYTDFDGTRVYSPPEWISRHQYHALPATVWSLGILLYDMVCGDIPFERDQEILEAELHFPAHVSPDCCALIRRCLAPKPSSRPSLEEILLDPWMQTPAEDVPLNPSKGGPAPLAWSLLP
Procedure: as §1

Itk(h) = Itk(h) (Homo sapiens, UniProt Q08881); conditions: read-out: percent residual activity of Itk(h)
Sequence of Itk(h) (Q08881 whole entry): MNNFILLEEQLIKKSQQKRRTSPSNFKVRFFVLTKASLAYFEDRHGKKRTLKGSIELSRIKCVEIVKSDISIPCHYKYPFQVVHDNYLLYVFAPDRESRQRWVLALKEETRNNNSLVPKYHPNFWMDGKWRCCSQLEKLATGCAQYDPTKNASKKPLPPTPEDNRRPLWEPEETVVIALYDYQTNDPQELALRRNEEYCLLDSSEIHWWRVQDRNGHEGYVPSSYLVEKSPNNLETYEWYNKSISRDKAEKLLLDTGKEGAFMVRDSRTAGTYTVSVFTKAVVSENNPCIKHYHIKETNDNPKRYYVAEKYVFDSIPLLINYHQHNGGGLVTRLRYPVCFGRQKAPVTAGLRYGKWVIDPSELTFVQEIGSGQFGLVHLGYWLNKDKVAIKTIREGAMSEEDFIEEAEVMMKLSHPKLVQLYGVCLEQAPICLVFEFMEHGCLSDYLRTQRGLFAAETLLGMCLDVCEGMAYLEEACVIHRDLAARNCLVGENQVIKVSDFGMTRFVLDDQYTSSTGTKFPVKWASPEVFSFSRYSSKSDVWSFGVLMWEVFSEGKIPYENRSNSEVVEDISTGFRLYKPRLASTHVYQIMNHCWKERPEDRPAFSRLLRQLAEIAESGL
Procedure: as §1

Rsk4(h) = Rsk4(h) (Homo sapiens, UniProt Q9UK32); conditions: read-out: percent residual activity of Rsk4(h)
Procedure: as §1

GRK6(h) = GRK6(h) (Homo sapiens, UniProt P43250); conditions: read-out: percent residual activity of GRK6(h)
Procedure: as §1

HIPK1(h) = HIPK1(h) (Homo sapiens, UniProt Q86Z02); conditions: read-out: percent residual activity of HIPK1(h)
Procedure: as §1

LOK(h) = LOK(h) (Homo sapiens, UniProt O94804); conditions: read-out: percent residual activity of LOK(h)
Procedure: as §1

CK1γ2(h) = CK1γ2(h) (Homo sapiens, UniProt P78368); conditions: read-out: percent residual activity of CK1γ2(h)
Procedure: as §1

MRCKα(h) = MRCKα(h) (Homo sapiens, UniProt Q5VT25); conditions: read-out: percent residual activity of MRCKα(h)
Sequence of MRCKα(h) (Q5VT25 whole entry): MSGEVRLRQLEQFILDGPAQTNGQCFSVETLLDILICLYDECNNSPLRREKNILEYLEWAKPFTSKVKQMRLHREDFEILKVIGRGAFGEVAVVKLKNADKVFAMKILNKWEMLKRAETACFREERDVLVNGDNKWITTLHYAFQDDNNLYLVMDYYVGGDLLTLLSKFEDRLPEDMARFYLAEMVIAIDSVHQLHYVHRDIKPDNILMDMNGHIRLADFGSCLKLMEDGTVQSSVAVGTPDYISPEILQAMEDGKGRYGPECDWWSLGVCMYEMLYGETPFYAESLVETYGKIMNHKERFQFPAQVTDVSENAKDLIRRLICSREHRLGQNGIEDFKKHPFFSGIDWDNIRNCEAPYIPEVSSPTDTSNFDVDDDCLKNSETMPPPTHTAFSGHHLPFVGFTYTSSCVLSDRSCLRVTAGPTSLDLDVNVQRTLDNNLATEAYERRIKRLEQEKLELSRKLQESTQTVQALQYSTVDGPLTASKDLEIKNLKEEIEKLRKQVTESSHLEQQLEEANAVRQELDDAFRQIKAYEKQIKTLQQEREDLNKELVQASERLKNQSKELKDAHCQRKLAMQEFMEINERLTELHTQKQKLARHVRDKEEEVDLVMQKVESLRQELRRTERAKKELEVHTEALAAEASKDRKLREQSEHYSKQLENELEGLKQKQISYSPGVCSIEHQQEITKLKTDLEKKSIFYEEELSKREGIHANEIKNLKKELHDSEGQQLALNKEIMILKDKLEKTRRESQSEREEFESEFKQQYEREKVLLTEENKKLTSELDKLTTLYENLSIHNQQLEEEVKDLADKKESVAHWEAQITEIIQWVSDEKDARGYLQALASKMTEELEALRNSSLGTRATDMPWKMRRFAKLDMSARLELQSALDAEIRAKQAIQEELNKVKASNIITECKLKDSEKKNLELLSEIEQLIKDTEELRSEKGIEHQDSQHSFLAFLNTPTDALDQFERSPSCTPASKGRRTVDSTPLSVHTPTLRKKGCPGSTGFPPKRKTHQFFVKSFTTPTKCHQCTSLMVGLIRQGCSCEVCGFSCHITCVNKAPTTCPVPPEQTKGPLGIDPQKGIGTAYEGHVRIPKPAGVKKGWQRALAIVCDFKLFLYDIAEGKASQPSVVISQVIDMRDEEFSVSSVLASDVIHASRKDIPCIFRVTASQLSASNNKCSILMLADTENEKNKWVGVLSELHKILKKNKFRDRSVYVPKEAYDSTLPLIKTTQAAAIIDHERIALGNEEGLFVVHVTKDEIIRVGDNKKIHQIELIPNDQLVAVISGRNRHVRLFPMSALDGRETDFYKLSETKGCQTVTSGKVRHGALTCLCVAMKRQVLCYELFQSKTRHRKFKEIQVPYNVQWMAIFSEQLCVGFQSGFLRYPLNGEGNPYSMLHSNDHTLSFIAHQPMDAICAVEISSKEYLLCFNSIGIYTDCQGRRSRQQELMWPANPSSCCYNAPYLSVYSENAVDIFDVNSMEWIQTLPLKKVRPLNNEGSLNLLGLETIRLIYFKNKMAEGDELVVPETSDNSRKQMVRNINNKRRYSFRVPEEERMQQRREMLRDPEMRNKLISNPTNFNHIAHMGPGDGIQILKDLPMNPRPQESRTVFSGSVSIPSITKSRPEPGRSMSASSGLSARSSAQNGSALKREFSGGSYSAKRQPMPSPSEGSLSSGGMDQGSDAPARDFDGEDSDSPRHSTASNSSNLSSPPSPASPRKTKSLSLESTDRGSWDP
Procedure: as §1

NEK3(h) = NEK3(h) (Homo sapiens, UniProt P51956); conditions: read-out: percent residual activity of NEK3(h)
Procedure: as §1

PKG1α(h) = PKG1α(h) (Homo sapiens, UniProt Q13976); conditions: read-out: percent residual activity of PKG1α(h)
Sequence of PKG1α(h) (Q13976 whole entry): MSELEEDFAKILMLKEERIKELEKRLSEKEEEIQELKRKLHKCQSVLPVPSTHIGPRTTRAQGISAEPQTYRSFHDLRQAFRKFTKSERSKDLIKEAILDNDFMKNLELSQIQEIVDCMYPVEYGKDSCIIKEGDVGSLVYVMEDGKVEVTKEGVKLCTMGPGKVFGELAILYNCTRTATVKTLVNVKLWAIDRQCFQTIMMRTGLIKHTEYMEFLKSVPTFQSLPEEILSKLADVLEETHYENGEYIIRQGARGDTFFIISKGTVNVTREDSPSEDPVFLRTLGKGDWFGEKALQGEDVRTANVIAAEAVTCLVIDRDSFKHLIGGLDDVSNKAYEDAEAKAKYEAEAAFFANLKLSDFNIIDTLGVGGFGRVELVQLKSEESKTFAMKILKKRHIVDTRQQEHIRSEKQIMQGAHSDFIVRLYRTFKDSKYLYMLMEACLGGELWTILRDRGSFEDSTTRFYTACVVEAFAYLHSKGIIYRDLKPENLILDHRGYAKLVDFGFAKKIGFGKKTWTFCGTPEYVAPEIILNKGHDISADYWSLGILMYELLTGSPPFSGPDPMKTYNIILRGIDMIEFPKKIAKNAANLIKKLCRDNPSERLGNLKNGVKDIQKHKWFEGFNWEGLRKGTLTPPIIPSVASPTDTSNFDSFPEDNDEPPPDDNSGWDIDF
Procedure: as §1

MELK(h) = MELK(h) (Homo sapiens, UniProt Q14680); conditions: read-out: percent residual activity of MELK(h)
Procedure: as §1

BrSK2(h) = BrSK2(h) (Homo sapiens, UniProt Q8IWQ3); conditions: read-out: percent residual activity of BrSK2(h)
Procedure: as §1

Mnk2(h) = Mnk2(h) (Homo sapiens, UniProt Q9HBH9); conditions: read-out: percent residual activity of Mnk2(h)
Procedure: as §1

SAPK2a(T106M)(h) = SAPK2a(T106M)(h) (Homo sapiens, UniProt Q16539, T106M); conditions: read-out: percent residual activity of SAPK2a(T106M)(h)
Sequence of SAPK2a(T106M)(h) (Q16539 whole entry T106M): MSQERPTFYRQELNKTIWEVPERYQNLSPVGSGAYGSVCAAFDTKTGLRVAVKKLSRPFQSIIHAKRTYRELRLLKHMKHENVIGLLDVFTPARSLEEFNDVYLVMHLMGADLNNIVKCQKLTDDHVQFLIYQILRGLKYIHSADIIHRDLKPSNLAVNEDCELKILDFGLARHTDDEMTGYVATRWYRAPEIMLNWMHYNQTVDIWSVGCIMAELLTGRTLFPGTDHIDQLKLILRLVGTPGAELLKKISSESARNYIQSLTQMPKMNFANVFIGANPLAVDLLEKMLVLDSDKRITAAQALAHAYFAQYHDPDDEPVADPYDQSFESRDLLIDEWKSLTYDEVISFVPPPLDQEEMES
Procedure: as §1

BrSK1(h) = BrSK1(h) (Homo sapiens, UniProt Q8TDC3); conditions: read-out: percent residual activity of BrSK1(h)
Procedure: as §1

CK2α2(h) = CK2α2(h) (Homo sapiens, UniProt P19784); conditions: read-out: percent residual activity of CK2α2(h)
Procedure: as §1

eEF-2K(h) = eEF-2K(h) (Homo sapiens, UniProt O00418); conditions: read-out: percent residual activity of eEF-2K(h)
Procedure: as §1

CaMKIIγ(h) = CaMKIIγ(h) (Homo sapiens, UniProt Q13555); conditions: read-out: percent residual activity of CaMKIIγ(h)
Procedure: as §1

MSSK1(h) = MSSK1(h) (Homo sapiens, UniProt Q9UPE1); conditions: read-out: percent residual activity of MSSK1(h)
Procedure: as §1

GRK5(h) = GRK5(h) (Homo sapiens, UniProt P34947); conditions: read-out: percent residual activity of GRK5(h)
Procedure: as §1

HIPK3(h) = HIPK3(h) (Homo sapiens, UniProt Q9H422); conditions: read-out: percent residual activity of HIPK3(h)
Sequence of HIPK3(h) (Q9H422 whole entry): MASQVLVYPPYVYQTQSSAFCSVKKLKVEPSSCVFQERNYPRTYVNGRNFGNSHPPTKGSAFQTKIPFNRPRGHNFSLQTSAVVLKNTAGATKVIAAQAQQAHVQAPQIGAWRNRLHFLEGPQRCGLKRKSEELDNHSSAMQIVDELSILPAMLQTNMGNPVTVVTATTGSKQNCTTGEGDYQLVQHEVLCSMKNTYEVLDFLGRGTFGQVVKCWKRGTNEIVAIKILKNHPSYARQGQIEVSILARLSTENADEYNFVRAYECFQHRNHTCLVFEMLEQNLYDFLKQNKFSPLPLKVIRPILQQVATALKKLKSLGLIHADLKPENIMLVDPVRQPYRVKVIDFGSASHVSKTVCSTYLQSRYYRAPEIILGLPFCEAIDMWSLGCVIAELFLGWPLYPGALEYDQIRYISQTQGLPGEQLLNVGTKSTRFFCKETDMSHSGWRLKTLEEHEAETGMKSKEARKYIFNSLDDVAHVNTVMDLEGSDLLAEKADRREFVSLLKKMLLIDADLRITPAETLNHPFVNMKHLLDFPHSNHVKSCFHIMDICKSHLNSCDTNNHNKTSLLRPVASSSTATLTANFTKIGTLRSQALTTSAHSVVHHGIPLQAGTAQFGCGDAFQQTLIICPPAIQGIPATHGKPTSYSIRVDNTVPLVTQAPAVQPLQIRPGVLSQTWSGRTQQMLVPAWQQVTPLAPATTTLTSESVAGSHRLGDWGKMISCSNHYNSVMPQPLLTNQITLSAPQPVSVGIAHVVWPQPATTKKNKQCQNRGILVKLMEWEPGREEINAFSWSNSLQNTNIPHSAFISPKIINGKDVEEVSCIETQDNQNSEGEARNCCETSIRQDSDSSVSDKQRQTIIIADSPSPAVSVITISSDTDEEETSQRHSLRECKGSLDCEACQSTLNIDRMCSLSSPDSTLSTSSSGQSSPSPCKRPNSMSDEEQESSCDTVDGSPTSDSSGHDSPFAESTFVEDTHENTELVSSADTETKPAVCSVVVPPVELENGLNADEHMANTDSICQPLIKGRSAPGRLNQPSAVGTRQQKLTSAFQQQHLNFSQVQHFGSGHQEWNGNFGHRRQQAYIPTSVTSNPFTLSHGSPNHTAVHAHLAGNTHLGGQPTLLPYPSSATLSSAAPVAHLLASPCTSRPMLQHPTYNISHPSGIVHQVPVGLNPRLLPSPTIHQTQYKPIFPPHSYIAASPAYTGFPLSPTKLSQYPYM
Procedure: as §1

EphA7(h) = EphA7(h) (Homo sapiens, UniProt Q15375); conditions: read-out: percent residual activity of EphA7(h)
Procedure: as §1

CLK3(h) = CLK3(h) (Homo sapiens, UniProt P49761); conditions: read-out: percent residual activity of CLK3(h)
Procedure: as §1

WNK2(h) = WNK2(h) (Homo sapiens, UniProt Q9Y3S1); conditions: read-out: percent residual activity of WNK2(h)
Procedure: as §1

Row | SMILES | remaining activity at 2.5 µM (DAPK1(h)) [%] | remaining activity at 2.5 µM (EGFR(T790M)(h)) [%] | remaining activity at 2.5 µM (ARK5(h)) [%] | remaining activity at 2.5 µM (Pim-2(h)) [%] | remaining activity at 2.5 µM (Itk(h)) [%] | remaining activity at 2.5 µM (Rsk4(h)) [%] | remaining activity at 2.5 µM (GRK6(h)) [%] | remaining activity at 2.5 µM (HIPK1(h)) [%] | remaining activity at 2.5 µM (LOK(h)) [%] | remaining activity at 2.5 µM (CK1γ2(h)) [%] | remaining activity at 2.5 µM (MRCKα(h)) [%] | remaining activity at 2.5 µM (NEK3(h)) [%] | remaining activity at 2.5 µM (PKG1α(h)) [%] | remaining activity at 2.5 µM (MELK(h)) [%] | remaining activity at 2.5 µM (BrSK2(h)) [%] | remaining activity at 2.5 µM (Mnk2(h)) [%] | remaining activity at 2.5 µM (SAPK2a(T106M)(h)) [%] | remaining activity at 2.5 µM (BrSK1(h)) [%] | remaining activity at 2.5 µM (CK2α2(h)) [%] | remaining activity at 2.5 µM (eEF-2K(h)) [%] | further results
1 | CN1CCCC1CCNC(=O)c1cn2c3c(c(N4CCC(c5cnccn5)C4)c(F)cc3c1=O)Oc1cc3ccccc3cc1-2 (stereo not drawn) [Compound A-1] | 40 | 91 | 79 | 77 | 117 | 69 | 90 | 95 | 88 | 96 | 85 | 94 | 57 | 40 | 96 | 98 | 94 | 99 | 115 | 96 | remaining activity at 2.5 µM (CaMKIIγ(h)): 110%; remaining activity at 2.5 µM (MSSK1(h)): 41%; remaining activity at 2.5 µM (GRK5(h)): 95%; remaining activity at 2.5 µM (HIPK3(h)): 102%; remaining activity at 2.5 µM (EphA7(h)): 109%; remaining activity at 2.5 µM (CLK3(h)): 84%; remaining activity at 2.5 µM (WNK2(h)): 97%
2 | CC(=O)N1CCN(c2ccc3c(=O)c(C(=O)NCCN4CCCC4)c4n(C)c5ccccc5n4c3n2)CC1 [Compound B-1] | 89 | 114 | 104 | 110 | 102 | 94 | 83 | 101 | 106 | 103 | 98 | 118 | 101 | 94 | 96 | 115 | 99 | 107 | 116 | 98 | remaining activity at 2.5 µM (CaMKIIγ(h)): 104%; remaining activity at 2.5 µM (MSSK1(h)): 107%; remaining activity at 2.5 µM (GRK5(h)): 99%; remaining activity at 2.5 µM (HIPK3(h)): 97%; remaining activity at 2.5 µM (EphA7(h)): 100%; remaining activity at 2.5 µM (CLK3(h)): 96%; remaining activity at 2.5 µM (WNK2(h)): 108%

From US20070117770A1, “Human ribosomal DNA (rDNA) and ribosomal RNA (rRNA) nucleic acids and uses thereof” (Cylene Pharmaceuticals, Inc., priority 2005, published 2007)
